Assays:
[1] = test system: Collagen-induced arthritis (CIA); test: Rat collagen induced arthritis, therapeutic dosing; type: in vivo
Description: (§1) Immunization and Challenge: Female Lewis rats were immunized on day 0 and challenged on day 7 with cII from bovine nasal mixed with Freund's incomplete adjuvant at a final collagen concentration of 1.0 mg/ml. The animals were injected at the base of the tail with 400 μg of cII.
Therapeutic Dosing Regimen: The compound of Formula I (10 and 30 mg/kg, p.o., b.i.d.) was orally administered starting on day 12 and continued through day 21.
(§2) Joint Pathology Ankle joint swelling was measured to the nearest 0.01 mm by using electronic digital calipers. Measurements were recorded 7 times throughout the study starting on day 6 and ending on day 21. Body weights were recorded on the same days. On day 21, hind paws were removed at the hairline just above the ankle and fixed in 10% neutral buffered formalin.
MicroCT analysis: Ankle joints were examined using a cone-beam μCT scanner. […] In ankle joints, the ratio of bone surface to bone volume, describing the complexity of bone surface in a certain volume, was analyzed.
Statistical Analysis For joint swelling/inflammation, data were analyzed using Everstat v.5 software and a 2-way repeated measure ANOVA with Dunnett's post test. MicroCT data were analyzed by Everstat using a 1-way ANOVA and Newman-Keuls multiple comparison test. […]

[2] = test system: Collagen-induced arthritis (CIA); test: Rat collagen induced arthritis, prophylactic dosing; type: in vivo; settings: vs vehicle
Description: as §1
Prophylactic Dosing Regimen: The compound of Formula I (3.0, 10, and 30 mg/kg) was orally dosed (p.o.) twice daily (b.i.d.) starting on day 6 and continued through day 21.
as §2
MicroCT analysis: Ankle joints were examined using a cone-beam μCT scanner. A scout view scan was obtained first for selection of the examination volume of the specimens, followed by positioning, measurement and computational reconstruction. In ankle joints, the ratio of bone surface to bone volume, describing the complexity of bone surface in a certain volume, was analyzed.
Statistical Analysis For joint swelling/inflammation, data were analyzed using Everstat v.5 software and a 2-way repeated measure ANOVA with Dunnett's post test. MicroCT data were analyzed by Everstat using a 1-way ANOVA and Newman-Keuls multiple comparison test. Data are presented as the mean±SEM and p values of <0.05 are considered significant.

CCc1c(-c2ccc(C(C)(C)O)cc2)[nH]c2nccnc12 [compound of Formula I, 2-[4-(7-Ethyl-5H-pyrrolo[2,3-b]pyrazin-6-yl)-phenyl]-propan-2-ol]
bone erosion (ratio of bone surface to bone volume), MicroCT ([1]; 10 mg/kg or 30 mg/kg, therapeutic dosing, vs vehicle): significant decrease in bone erosion
ankle swelling/inflammation ([1]; 10 and 30 mg/kg p.o. b.i.d. from day 12, day 15-21): significantly reduced ankle swelling/inflammation
ankle swelling/inflammation ([2]; 3.0 mg/kg p.o. b.i.d. day 6-21, on day 12 only): significantly reduced ankle swelling/inflammation
ankle swelling/inflammation ([2]; 10 mg/kg p.o. b.i.d. day 6-21, on days 12 through 19): significantly reduced ankle swelling/inflammation
ankle swelling/inflammation ([2]; 30 mg/kg p.o. b.i.d. day 6-21, from day 12 through day 21): significantly reduced ankle swelling/inflammation
bone erosion (ratio of bone surface to bone volume), MicroCT ([2]; 3, 10 or 30 mg/kg b.i.d.): significant reductions in bone erosion

— patent US8658649B2, “Kinase inhibitor” (Sanofi, priority 2006, dated 2014)
